Test results taken from ChEMBL document CHEMBL1201862, “PubChem BioAssay data set” (2004).
Active and inactive are the calls of the source.

Tests used:
[1] = target: Photoreceptor-specific nuclear receptor (Homo sapiens, UniProt Q9Y5X4); format: functional;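 note: potency for compounds that break the NR2E3 corepressor complex and count as activators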
Streptokinase A = target: T1, Streptokinase A (Streptococcus pyogenes serotype M1, UniProt P10520); assay: viability-normalized secreted streptokinase activity reduction – plasminogen activation absorbance, OD405, dose response (AID 1914); format: functional, Streptococcus pyogenes M1 GAS;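 note: secreted streptokinase activity via plasminogen activation per viability signal from cell pellet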
T1 sequence (P10520 whole entry): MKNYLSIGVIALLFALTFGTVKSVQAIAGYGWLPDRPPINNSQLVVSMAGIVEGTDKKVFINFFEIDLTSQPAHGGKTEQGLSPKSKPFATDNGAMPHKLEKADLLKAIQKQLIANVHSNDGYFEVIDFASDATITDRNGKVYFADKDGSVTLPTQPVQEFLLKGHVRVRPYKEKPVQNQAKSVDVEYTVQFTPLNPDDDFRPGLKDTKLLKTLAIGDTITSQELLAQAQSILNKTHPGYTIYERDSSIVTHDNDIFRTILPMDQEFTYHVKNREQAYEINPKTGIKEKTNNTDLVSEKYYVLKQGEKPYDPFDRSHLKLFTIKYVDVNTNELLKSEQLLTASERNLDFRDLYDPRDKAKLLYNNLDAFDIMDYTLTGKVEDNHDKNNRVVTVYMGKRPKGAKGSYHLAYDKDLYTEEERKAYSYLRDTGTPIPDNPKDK

[2] = target: Peroxisome proliferator-activated receptor gamma/Nuclear receptor corepressor 2 (Homo sapiens, UniProt P37231+Q9Y618); format: functional
Sequence of Peroxisome proliferator-activated receptor gamma/Nuclear receptor corepressor 2 (P37231 whole entry): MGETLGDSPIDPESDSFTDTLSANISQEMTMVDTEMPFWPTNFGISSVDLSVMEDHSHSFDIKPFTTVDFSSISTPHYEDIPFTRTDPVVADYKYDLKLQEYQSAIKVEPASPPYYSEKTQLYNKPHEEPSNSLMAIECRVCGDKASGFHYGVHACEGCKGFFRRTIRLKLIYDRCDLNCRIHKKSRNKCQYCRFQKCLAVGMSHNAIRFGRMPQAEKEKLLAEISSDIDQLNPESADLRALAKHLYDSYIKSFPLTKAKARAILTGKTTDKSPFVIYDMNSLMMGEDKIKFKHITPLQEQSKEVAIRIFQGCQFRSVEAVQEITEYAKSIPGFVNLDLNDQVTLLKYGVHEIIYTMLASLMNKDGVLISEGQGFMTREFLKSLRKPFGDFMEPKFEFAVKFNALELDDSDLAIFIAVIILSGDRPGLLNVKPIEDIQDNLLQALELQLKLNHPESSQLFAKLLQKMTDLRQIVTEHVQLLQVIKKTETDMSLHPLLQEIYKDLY
Sequence of Peroxisome proliferator-activated receptor gamma/Nuclear receptor corepressor 2 (Q9Y618 whole entry): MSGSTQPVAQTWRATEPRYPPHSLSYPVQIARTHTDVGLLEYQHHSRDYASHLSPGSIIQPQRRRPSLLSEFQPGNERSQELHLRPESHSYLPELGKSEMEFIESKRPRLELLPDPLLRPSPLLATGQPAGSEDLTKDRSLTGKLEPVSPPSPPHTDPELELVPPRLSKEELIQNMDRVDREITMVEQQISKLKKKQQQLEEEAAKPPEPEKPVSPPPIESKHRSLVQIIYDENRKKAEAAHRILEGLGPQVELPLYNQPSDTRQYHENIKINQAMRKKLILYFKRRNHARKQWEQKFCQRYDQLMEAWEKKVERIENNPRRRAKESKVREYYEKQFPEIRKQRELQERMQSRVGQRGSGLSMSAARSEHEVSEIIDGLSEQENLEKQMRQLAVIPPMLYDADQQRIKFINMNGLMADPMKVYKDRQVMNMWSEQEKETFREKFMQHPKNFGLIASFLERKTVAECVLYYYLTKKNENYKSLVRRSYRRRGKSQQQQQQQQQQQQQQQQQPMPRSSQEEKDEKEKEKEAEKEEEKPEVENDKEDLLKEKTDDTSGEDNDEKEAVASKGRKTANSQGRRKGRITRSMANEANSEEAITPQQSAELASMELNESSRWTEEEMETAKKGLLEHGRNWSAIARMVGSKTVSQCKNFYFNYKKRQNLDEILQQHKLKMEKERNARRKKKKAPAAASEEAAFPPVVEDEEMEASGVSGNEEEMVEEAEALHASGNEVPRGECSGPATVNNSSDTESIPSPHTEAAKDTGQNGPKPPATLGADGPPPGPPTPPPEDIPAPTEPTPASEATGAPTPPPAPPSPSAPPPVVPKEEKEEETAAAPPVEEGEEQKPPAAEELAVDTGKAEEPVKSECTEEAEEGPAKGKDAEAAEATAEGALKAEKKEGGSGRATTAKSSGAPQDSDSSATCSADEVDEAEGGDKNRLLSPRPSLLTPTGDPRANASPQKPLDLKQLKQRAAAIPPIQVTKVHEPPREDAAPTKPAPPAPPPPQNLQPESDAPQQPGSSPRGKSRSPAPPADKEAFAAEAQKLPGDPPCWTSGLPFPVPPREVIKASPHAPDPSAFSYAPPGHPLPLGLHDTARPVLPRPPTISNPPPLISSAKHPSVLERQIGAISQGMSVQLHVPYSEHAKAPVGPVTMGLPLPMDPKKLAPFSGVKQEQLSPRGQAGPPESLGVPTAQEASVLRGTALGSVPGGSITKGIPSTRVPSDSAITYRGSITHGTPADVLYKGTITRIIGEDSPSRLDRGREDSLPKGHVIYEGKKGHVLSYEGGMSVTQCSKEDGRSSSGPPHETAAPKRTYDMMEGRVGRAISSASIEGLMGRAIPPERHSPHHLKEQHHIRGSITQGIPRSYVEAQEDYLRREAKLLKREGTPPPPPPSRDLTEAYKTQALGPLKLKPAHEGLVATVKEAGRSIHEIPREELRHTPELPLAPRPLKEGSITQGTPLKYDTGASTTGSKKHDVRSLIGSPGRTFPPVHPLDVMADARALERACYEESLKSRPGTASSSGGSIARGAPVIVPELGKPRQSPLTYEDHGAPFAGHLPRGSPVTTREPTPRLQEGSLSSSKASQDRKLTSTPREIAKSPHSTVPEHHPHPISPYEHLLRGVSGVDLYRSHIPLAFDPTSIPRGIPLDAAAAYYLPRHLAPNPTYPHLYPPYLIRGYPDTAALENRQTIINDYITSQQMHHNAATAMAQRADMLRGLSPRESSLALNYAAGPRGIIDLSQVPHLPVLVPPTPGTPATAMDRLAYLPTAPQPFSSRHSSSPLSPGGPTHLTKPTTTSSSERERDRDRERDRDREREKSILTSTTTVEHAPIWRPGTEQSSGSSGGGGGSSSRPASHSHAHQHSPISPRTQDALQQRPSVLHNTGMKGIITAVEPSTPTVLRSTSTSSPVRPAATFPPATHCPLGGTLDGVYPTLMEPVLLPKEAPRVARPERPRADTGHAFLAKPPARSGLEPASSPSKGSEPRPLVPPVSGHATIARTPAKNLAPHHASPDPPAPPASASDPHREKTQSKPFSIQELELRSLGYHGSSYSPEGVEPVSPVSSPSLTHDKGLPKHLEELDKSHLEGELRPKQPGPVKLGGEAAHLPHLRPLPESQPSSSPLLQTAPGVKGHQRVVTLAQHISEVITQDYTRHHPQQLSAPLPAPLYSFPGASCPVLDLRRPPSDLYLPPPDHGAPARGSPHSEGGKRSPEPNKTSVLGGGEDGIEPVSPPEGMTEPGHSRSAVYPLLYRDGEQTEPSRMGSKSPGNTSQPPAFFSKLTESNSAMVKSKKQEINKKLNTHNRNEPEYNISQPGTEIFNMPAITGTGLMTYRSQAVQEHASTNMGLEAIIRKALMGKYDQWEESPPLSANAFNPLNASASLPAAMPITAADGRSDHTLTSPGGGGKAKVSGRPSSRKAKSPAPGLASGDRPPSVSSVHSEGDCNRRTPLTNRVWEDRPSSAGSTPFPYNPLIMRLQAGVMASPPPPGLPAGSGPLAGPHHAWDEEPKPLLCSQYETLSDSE

[3] = target: T2, Heat shock factor protein 1 (Mus musculus, UniProt P38532); assay: enhancement of HSF1-driven luciferase signal – cell-based, NIH3T3, luminescence, dose retest, confirmation (AID 435004); format: functional;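 note: stress induced by proteasome inhibitor MG132 added 30 min after compound; luciferase reporter driven by HSF1 response element in NIH3T3 cells; actives raise luminescence as potentiators of the MG132 stress response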
T2 sequence (P38532 whole entry): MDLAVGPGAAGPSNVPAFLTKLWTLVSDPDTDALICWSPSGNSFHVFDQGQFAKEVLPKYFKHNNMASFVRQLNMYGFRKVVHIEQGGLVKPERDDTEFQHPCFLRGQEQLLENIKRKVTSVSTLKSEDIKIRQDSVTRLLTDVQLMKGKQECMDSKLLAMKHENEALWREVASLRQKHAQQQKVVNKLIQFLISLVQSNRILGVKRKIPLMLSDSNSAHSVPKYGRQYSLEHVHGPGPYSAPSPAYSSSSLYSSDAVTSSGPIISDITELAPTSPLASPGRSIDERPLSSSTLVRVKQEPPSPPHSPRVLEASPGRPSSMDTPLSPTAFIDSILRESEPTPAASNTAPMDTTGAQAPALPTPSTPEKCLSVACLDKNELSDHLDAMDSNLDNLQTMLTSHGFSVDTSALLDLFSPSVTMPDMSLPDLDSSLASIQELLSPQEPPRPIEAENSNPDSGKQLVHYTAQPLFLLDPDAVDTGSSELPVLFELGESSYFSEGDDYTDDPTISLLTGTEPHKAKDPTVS

Protein Rev = Protein Rev (Human immunodeficiency virus type 1 group M subtype B (isolate HXB2)(HIV-1), UniProt P04618); assay: blockers of HIV Rev/RRE RNA complex – biochemical, fluorescence polarization, HIV-1, dose response (AID 434976); design: species or system Human immunodeficiency virus 1
Sequence of Protein Rev (P04618 whole entry): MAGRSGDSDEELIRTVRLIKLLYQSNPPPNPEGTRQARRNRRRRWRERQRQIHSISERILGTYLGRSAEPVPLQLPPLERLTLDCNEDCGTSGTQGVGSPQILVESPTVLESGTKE

[4] = target: Female germline-specific tumor suppressor gld-1 (Caenorhabditis elegans, UniProt Q17339); assay: blockers of GLD-1/TGE RNA complex formation – biochemical, fluorescence polarization, C. elegans, dose response (AID 2802);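 note: fluorescence polarization of labeled TGE RNA bound by purified gld-1 protein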
[5] = target: T3, RNA-binding protein pos-1 (Caenorhabditis elegans, UniProt G5EF15); assay: disruptors of C. elegans POS-1 RNA interaction – biochemical, fluorescence polarization, dose response (AID 1964);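 note: purified POS-1 fused to maltose binding protein made in E. coli; potency of compounds blocking POS-1 binding to fluorescent RNA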
T3 sequence (G5EF15 whole entry): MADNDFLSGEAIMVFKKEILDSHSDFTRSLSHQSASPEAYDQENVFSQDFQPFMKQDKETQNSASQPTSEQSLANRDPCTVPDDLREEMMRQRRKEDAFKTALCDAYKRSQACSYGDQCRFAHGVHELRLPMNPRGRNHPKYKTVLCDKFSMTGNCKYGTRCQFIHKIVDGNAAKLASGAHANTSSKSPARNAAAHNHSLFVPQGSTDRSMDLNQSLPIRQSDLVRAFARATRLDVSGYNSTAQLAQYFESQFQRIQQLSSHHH

[6] = target: T4, Zinc finger protein mex-5 (Caenorhabditis elegans, UniProt Q9XUB2); assay: potency of MEX-5 RNA-binding blockers – biochemical, C. elegans, fluorescence polarization, dose response (AID 1960)
T4 sequence (Q9XUB2 whole entry): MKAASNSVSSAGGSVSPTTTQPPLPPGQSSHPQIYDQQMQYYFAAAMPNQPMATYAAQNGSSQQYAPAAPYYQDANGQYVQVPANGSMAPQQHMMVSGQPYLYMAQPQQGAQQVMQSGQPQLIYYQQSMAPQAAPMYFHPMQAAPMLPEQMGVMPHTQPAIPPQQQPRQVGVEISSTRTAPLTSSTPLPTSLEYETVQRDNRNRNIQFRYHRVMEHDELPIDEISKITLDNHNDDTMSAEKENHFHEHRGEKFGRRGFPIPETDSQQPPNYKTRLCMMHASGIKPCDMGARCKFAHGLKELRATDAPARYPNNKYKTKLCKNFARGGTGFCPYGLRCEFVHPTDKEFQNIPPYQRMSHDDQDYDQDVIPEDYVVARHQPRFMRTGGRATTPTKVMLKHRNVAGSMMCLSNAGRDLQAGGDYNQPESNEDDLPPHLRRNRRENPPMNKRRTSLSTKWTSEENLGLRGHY

14-3-3 protein gamma = 14-3-3 protein gamma (Homo sapiens, UniProt P61981); assay: modulators of 14-3-3 gamma client binding – dose response (AID 711); format: functional
[7] = target: T5, Polyadenylate-binding protein 1 (Homo sapiens, UniProt P11940); assay: MLLE binding blockers, Cy5 peptide tracer – biochemical, fluorescence polarization, Cy5-PAM2 peptide, secondary, miRNA deadenylation inhibitor project, dose response (AID 602260); format: functional; settings: read-out: IC50_Mean
T5 sequence (P11940 whole entry, the tested form may be a part): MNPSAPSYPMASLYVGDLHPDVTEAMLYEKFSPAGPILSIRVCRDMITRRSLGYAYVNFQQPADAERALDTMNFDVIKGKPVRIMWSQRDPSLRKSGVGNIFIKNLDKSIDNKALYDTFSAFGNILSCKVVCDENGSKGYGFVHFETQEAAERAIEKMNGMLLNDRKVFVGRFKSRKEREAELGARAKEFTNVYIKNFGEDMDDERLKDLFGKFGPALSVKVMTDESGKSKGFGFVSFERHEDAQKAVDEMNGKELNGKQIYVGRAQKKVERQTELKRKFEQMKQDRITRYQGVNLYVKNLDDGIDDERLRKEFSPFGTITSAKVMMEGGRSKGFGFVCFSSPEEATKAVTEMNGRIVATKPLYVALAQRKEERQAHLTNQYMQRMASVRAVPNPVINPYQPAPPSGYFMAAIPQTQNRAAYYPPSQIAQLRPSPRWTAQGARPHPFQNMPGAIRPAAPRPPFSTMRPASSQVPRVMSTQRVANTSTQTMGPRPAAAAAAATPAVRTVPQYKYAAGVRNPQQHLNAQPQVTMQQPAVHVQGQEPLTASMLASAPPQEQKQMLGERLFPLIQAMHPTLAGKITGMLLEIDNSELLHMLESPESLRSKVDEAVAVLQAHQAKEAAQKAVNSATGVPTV

[8] = target: T5, Polyadenylate-binding protein 1; assay: MLLE domain peptide-binding blockers, IC50 – biochemical, fluorescence polarization, FITC-PAM2 peptide, dose response (AID 602259); format: functional; settings: read-out: IC50_Mean
Protein skinhead-1 = target: T6, Protein skinhead-1 (Caenorhabditis elegans, UniProt P34707); format: functional
T6 sequence (P34707 whole entry): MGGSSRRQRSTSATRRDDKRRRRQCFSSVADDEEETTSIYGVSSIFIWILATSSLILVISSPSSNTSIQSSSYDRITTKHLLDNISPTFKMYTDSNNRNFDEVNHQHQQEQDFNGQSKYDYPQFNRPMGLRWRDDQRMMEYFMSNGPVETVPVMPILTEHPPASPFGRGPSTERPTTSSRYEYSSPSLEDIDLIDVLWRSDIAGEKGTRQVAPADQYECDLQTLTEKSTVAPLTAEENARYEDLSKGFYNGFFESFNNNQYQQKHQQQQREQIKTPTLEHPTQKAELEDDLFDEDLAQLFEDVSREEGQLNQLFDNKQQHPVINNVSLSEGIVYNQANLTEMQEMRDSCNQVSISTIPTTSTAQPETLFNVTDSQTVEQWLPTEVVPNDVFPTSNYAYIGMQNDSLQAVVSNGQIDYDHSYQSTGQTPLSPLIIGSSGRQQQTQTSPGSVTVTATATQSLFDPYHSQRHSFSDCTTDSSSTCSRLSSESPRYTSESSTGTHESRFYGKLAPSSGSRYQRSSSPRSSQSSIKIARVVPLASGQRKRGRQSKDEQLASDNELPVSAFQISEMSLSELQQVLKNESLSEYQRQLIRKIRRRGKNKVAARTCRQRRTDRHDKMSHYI

[9] = target: Potassium voltage-gated channel subfamily KQT member 2 (Rattus norvegicus, UniProt O88943, W236L); assay: potentiation of rat KCNQ2 current – cell-based, automated electrophysiology, mechanism study for KCNQ2 potentiator project, dose response (AID 2603); format: functional
Sequence of Potassium voltage-gated channel subfamily KQT member 2 (O88943 whole entry W236L): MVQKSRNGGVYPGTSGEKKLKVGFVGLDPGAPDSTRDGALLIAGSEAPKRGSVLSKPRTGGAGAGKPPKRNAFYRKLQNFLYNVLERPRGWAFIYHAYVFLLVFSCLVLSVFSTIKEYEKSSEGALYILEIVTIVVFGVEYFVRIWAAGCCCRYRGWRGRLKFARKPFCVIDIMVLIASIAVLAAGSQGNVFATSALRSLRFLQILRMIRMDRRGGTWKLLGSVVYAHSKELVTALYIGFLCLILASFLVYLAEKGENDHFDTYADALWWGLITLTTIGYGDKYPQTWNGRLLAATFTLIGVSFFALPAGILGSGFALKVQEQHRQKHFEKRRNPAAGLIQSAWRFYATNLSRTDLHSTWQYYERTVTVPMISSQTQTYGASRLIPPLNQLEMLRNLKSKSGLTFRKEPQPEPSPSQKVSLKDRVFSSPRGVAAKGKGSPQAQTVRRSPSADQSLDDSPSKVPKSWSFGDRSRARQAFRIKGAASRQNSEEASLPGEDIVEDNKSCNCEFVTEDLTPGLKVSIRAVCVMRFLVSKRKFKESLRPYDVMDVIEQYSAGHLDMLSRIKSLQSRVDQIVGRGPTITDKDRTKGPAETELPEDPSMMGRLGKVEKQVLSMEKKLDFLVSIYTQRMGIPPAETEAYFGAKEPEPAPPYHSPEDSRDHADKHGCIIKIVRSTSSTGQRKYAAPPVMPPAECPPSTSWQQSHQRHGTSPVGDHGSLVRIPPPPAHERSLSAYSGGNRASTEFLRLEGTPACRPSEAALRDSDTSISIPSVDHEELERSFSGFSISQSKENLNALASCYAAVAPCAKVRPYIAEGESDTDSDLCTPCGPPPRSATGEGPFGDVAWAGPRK

[10] = luciferase reporter signal suppression in cells – H4 neuroglioma cells, luminescence, dose response (AID 1990); format: functional, cell-based
[11] = Luminescence Cell-Based Dose Response HTS to Identify Inhibitors of 5'UTR Stem-Loop Driven Prion Protein mRNA Translation in H4 Neuroglioblastoma Cells. [Related pubchem assays: 1827 (Project Summary), 1813 (Primary HTS)]; format: functional
[12] = alpha-synuclein stem-loop luciferase translation blockers – H4 neuroglioma cells, luminescence, confirmation (AID 1988); format: functional, cell-based
Hexokinase HKDC1 = target: T7, Hexokinase HKDC1 (Homo sapiens, UniProt Q2TB90); assay: inhibition of HKDC1 glucose phosphorylation – biochemical, W721R variant, dose response (AID 504729); format: functional
T7 sequence (Q2TB90 whole entry): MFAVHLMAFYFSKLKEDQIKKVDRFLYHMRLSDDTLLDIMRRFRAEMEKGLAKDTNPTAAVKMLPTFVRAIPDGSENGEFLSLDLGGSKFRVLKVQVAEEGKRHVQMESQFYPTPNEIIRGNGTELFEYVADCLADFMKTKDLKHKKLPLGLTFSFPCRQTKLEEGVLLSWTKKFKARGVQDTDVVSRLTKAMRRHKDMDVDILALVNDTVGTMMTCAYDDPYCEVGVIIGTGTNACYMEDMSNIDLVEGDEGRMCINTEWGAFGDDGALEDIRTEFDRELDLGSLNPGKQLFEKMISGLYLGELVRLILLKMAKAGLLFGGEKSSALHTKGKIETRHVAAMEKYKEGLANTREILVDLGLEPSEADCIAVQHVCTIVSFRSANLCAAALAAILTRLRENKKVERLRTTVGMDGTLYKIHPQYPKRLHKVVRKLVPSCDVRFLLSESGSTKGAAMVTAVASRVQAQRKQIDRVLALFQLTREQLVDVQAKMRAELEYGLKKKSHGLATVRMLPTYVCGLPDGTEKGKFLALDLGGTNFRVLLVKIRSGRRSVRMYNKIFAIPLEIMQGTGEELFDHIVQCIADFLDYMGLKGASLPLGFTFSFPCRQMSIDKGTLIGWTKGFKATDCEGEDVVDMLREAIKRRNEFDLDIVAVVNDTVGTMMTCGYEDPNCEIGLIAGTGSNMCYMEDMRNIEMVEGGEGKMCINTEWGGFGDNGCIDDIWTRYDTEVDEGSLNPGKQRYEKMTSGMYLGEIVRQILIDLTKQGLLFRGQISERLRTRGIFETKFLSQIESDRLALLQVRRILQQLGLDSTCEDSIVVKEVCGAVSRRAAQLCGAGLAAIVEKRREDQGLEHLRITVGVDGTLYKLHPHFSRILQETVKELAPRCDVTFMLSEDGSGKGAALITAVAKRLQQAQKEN

[13] = target: Peroxisome proliferator-activated receptor gamma/Nuclear receptor coactivator 1 (Homo sapiens, UniProt P37231); assay: (§1) TR-FRET dose response biochemical High Throughput Screening assay for agonists of the steroid receptor coactivator 1 (SRC-1) recruitment by the peroxisome proliferator-activated receptor gamma (PPAR gamma): non-selective agonists. [Related pubchem assays (depositor defined):AID1300, AID1808, AID504735, AID631]; format: protein assay
[14] = target: Peroxisome proliferator-activated receptor gamma/Nuclear receptor coactivator 3 (Homo sapiens, UniProt P37231); assay: as §1, with “3 (SRC-3)” for “1 (SRC-1)”, “assays: 1301 (Confirmation screen.), 1048 (Primary screen.)]” for “assays (depositor defined):AID1300, AID1808, AID504735, AID631]”; format: functional
[15] = target: Peroxisome proliferator-activated receptor gamma/Nuclear receptor coactivator 2 (Homo sapiens, UniProt P37231); assay: TR-FRET dose response biochemical High Throughput Screening assay for agonists of the steroid receptor coactivator 2 (SRC-2) recruitment by the peroxisome proliferator-activated receptor gamma (PPAR gamma): non-selective agonists. [Related pubchem assays: 1297, 1032 ]; format: functional
[16] = target: T8, Alkaline phosphatase, tissue-nonspecific isozyme (Homo sapiens, UniProt P05186)
T8 sequence (P05186 whole entry): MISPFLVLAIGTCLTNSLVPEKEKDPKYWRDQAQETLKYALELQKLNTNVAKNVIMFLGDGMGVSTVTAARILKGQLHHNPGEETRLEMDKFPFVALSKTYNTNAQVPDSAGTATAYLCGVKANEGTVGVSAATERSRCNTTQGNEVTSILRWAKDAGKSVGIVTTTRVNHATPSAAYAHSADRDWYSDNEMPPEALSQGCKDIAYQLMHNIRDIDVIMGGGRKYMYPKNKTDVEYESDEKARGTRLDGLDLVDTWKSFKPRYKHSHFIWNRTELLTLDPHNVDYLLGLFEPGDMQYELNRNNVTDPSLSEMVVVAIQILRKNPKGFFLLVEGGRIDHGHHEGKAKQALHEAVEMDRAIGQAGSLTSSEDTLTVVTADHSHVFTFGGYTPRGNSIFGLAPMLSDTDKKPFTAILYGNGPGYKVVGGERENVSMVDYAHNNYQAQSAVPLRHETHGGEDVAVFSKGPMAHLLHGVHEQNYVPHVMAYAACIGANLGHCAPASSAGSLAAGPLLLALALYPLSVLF

Sequence of Photoreceptor-specific nuclear receptor (Q9Y5X4 whole entry): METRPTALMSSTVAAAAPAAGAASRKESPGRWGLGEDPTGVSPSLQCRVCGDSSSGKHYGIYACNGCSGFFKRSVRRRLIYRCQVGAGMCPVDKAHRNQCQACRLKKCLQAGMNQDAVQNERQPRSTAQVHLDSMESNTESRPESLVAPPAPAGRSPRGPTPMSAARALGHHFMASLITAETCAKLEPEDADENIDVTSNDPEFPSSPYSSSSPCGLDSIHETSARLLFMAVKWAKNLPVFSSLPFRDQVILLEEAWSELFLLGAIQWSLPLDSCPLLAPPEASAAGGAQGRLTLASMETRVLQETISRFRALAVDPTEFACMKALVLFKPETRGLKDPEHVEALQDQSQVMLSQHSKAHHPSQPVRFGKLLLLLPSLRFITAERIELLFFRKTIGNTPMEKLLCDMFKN

S=c1[nH]c(SCc2ccccc2)nc2ccccc12
IC50 [1]: > 39.8 µM (not active) | EC50 (Streptokinase A): > 150 µM (not active) | IC50 [2]: 2.48 µM (active) | EC50 [3]: 227 µM (active)

COc1ccc(-c2nc(C[S+]([O-])CC(=O)NCc3ccccn3)c(C)o2)cc1 (stereo not given)
IC50 (Protein Rev): 19.4 µM (not active) | IC50 [4]: 5 µM (active) | EC50 [5]: 55.4 µM (active) | EC50 [6]: 30.5 µM (active) | IC50 (14-3-3 protein gamma): 10.7 µM (active) | IC50 [7]: > 66 µM (inactive) | IC50 [8]: 29.4 µM (inactive) | IC50 (Protein skinhead-1): > 100 µM (inactive)

Oc1c(Cl)cc(Cl)cc1/C=N/c1nccs1
EC50 [9]: 11.6 µM (active)

C#CCn1/c(=N/C(=O)CSC(C)=O)sc2cc(F)ccc21
EC50 [9]: 2.97 µM (active)

O=C(NCCc1ccccc1)c1cnn2c(C(F)F)cc(C3CC3)nc12
EC50 [10]: > 120 µM (not active) | EC50 [11]: > 120 µM (not active) | EC50 [12]: > 120 µM (not active) | IC50 (Hexokinase HKDC1): 5.5 µM (active)

O=C(CSc1n[nH]c(-c2cccnc2)n1)Nc1ccc([N+](=O)[O-])cc1Br
IC50 (Hexokinase HKDC1): 5.92 µM (active)

O=C(CSc1ncnc2c1oc1ccccc12)c1cccs1
IC50 [1]: > 39.8 µM (not active) | EC50 [13]: > 26.5 µM (inactive) | EC50 [14]: > 79.4 µM (not active) | EC50 [15]: > 8.82 µM (not active) | IC50 [2]: 15.3 µM (not active)

COc1ccc(NC(=O)CSc2nc3ccccc3c3nc4ccccc4n23)cc1
EC50 [16]: > 100 µM (not active)
